Experimental findings from patent US20260183302A1, “PDK1 REGULATORY COMPOUND AND COMPOSITION CONTAINING THE SAME” (PROVIBIO CO., LTD., priority 2024, published 2026) are described below.

Data set [1] concerns T cells isolated from mouse spleens. As to the kind of experiment: T cell proliferation inhibition (CFSE flow cytometry, anti-CD3/anti-CD28 stimulation). The format is cell-based, C57BL/6 mice. Conditions: three days. How it is done:
To verify the T cell proliferation inhibitory effect of the compounds according to the present invention, the following experiment was performed based on flow cytometry analysis using carboxyfluorescein diacetate succinimidyl ester (CFSE), a fluorescent dye that binds to intracellular molecules via covalent bonds.
Spleens were extracted from 7-week-old C57BL/6 mice, ground, and then separated into single cells using a strainer (40 μm pore size, SPL). Red blood cells were removed using ACK (Ammonium-Chloride-Potassium) lysis buffer to isolate white blood cells.
Finally, using a MACS Magnetic Stand and LS column, T cells were isolated from the spleen.
The T cells isolated from the spleen were resuspended in 1 mL of free medium (RPMI-1640+200 U/mL penicillin+200 μg/mL streptomycin), and 0.3 μL of CFSE (10 mM) was added. The mixture was incubated at 37° C. for 5 minutes.
Free medium (10 mL) was added to stop the reaction, and the cells were centrifuged to obtain the cell pellet.
RPMI 1640 medium containing 10% FBS, 100 U/mL penicillin, 100 μg/mL streptomycin, and resuspended the cells. The cells were then seeded into a 96-well plate at a density of 2× 10^5 cells per well and activated with CD3 and CD28 antibodies (0.5 μg/mL each) to activate T cells.
The compound diluted in DMSO was added at concentrations of 10 nM, 100 nM, 1 μM, 10 μM, 30 μM, and 50 μM, with three wells per concentration, and cultured at 37° C. and 5% CO2 for three days. The cells were then analyzed using a FACS Canto instrument.
The proliferation inhibition rate (%) was calculated using the following formula: […]

Data set [2] relates to Human B Lymphocyte cell line, SU-DHL-8. The experiment in a line: Relative cell viability, SU-DHL-8 (CCK-8). It counts as cell-based. Conditions: 48 hours, untreated (DMSO) = 100%. The procedure:
Human-derived B lymphoma cell line SU-DHL-8 (Cat. #CRL-2961) purchased from ATCC was cultured in RPMI-1640 medium containing 10% FBS, 100 U/mL penicillin, and 100 μg/mL streptomycin.
The cell culture medium was then harvested, centrifuged at 1,300 rpm for 5 minutes, and the supernatant was removed. The cells were resuspended in the same medium and dispensed into a 96-well plate (Costar 96-well cell culture plate, Corning) at 90 μL per well, resulting in the conditions specified in Table 5.
Then, 10 μL of CCK-8 was added to each well, and the plates were incubated again at 37° C. in a 5% CO2 incubator for 4 hours.
In other words, when the survival rate of untreated cells (DMSO) is set at 100%, the relative cell survival rate in each group treated with the drug at different concentrations is indicated.

`C[C@H]1CNCCN1CCCCCCCCCCCCNC(=O)c1cccnc1N.Cl` [Compound 37, (S)-2-Amino-N-(12-(2-methylpiperazin-1-yl)dodecyl) nicotinamide hydrochloride]: the “Proliferation inhibition rate (%)” value in data set [1] (concentration 1 μM), in data set [1] (concentration 10 μM), in data set [1] (concentration 30 μM) and in data set [1] (concentration 50 μM) was 100.00% each time. For the same compound, the “Relative cell viability (%)” value in data set [2] (SU-DHL-8, 1 μM) stood at 6.38%; in data set [2] (SU-DHL-8, 10 μM), 4.45%; in data set [2] (SU-DHL-8, 30 μM), 3.17%; in data set [2] (SU-DHL-8, 50 μM) it was 2.32%.
Take `Nc1ncccc1C(=O)NCCCCCCCCCCCCN1CCC(Oc2ccncc2)CC1` [Compound 38, 2-Amino-N-(12-(4-(pyridin-4-yloxy)piperidin-1-yl)dodecyl) nicotinamide]: the “Proliferation inhibition rate (%)” value in data set [1] (concentration 100 nM), in data set [1] (concentration 1 μM), in data set [1] (concentration 10 μM), in data set [1] (concentration 30 μM) and in data set [1] (concentration 50 μM) was 100.00% throughout. The “Relative cell viability (%)” value in data set [2] (SU-DHL-8, 1 μM) turned out to be 4.16%; in data set [2] (SU-DHL-8, 10 μM), 3.30%; in data set [2] (SU-DHL-8, 30 μM), 1.79%; in data set [2] (SU-DHL-8, 50 μM), 1.42%.
Take `CC1CCCN(CCCCCCCCCCCCNC(=O)c2cccnc2N)CC1` (centres unmarked) [Compound 39, 2-Amino-N-(12-(4-methylazepan-1-yl)dodecyl) nicotinamide]: the “Proliferation inhibition rate (%)” value in data set [1] (concentration 100 nM), in data set [1] (concentration 1 μM), in data set [1] (concentration 10 μM), in data set [1] (concentration 30 μM) and in data set [1] (concentration 50 μM) was 100.00% each time. In addition, the “Relative cell viability (%)” value turned out to be 11.48% in data set [2] (SU-DHL-8, 1 μM); 8.41% in data set [2] (SU-DHL-8, 10 μM); 6.24% in data set [2] (SU-DHL-8, 30 μM); 4.27% in data set [2] (SU-DHL-8, 50 μM).
`CC1CN(C)C(CCCCCCCCCCCCNc2ccc3cncnc3n2)N1` (centres unmarked) [Compound 43]: the “Proliferation inhibition rate (%)” value in data set [1] (concentration 100 nM), in data set [1] (concentration 1 μM), in data set [1] (concentration 10 μM), in data set [1] (concentration 30 μM) and in data set [1] (concentration 50 μM) was 100.00% throughout. Also, the “Relative cell viability (%)” value in data set [2] (SU-DHL-8, 1 μM) is 22.61%; in data set [2] (SU-DHL-8, 10 μM) it was 11.93%; in data set [2] (SU-DHL-8, 30 μM) it was 2.34%; in data set [2] (SU-DHL-8, 50 μM) it was 1.58%.
Turning to `Cl.Nc1ncccc1C(=O)NCCCCCCCCCCCCN1CC[C@H](N)C1` [Compound 50, (S)-2-Amino-N-(12-(3-aminopyrrolidin-1-yl)dodecyl) nicotinamide hydrochloride], the “Proliferation inhibition rate (%)” value in data set [1] (concentration 100 nM), in data set [1] (concentration 1 μM), in data set [1] (concentration 10 μM), in data set [1] (concentration 30 μM) and in data set [1] (concentration 50 μM) was 100.00% in each case. The “Relative cell viability (%)” value in data set [2] (SU-DHL-8, 1 μM) is recorded as 9.20%; in data set [2] (SU-DHL-8, 10 μM), 8.18%; in data set [2] (SU-DHL-8, 30 μM), 6.18%; in data set [2] (SU-DHL-8, 50 μM), 4.31%.
Consider `Cc1ccc(OC2CCN(CCCCCCCCCCCCNC(=O)c3cccnc3N)CC2)cc1` [Compound 51, 2-Amino-N-(12-(4-(p-tolyloxy)piperidin-1-yl)dodecyl) nicotinamide], for which the “Proliferation inhibition rate (%)” value in data set [1] (concentration 10 nM) was 0.77%; in data set [1] (concentration 1 μM), 100.00%; in data set [1] (concentration 10 μM) it was 100.00%; in data set [1] (concentration 30 μM) it was 100.00%; in data set [1] (concentration 50 μM), 100.00%. Besides, the “Relative cell viability (%)” value was 3.48% in data set [2] (SU-DHL-8, 1 μM); 1.98% in data set [2] (SU-DHL-8, 10 μM); 0.89% in data set [2] (SU-DHL-8, 30 μM); 0.48% in data set [2] (SU-DHL-8, 50 μM).
Take `Nc1ncccc1C(=O)NCCCCCCCCCCCCN1CCN(CCO)CC1` [Compound 54, 2-Amino-N-(12-(4-(2-hydroxyethyl)piperazin-1-yl)dodecyl) nicotinamide]: the “Proliferation inhibition rate (%)” value in data set [1] (concentration 100 nM), in data set [1] (concentration 1 μM), in data set [1] (concentration 10 μM), in data set [1] (concentration 30 μM) and in data set [1] (concentration 50 μM) was 100.00% each time. The “Relative cell viability (%)” value is reported as 6.42% in data set [2] (SU-DHL-8, 1 μM); 4.05% in data set [2] (SU-DHL-8, 10 μM); 3.26% in data set [2] (SU-DHL-8, 30 μM); 2.23% in data set [2] (SU-DHL-8, 50 μM).
`Cc1ccc(C2CCN(CCCCCCCCCCCCNC(=O)c3cccnc3N)CC2)cc1` [Compound 55, 2-Amino-N-(12-(4-(p-tolyl)piperidin-1-yl)dodecyl) nicotinamide]: the “Proliferation inhibition rate (%)” value in data set [1] (concentration 100 nM), in data set [1] (concentration 1 μM), in data set [1] (concentration 10 μM), in data set [1] (concentration 30 μM) and in data set [1] (concentration 50 μM) was 100.00% throughout. The “Relative cell viability (%)” value was determined as 9.36% in data set [2] (SU-DHL-8, 1 μM); 4.92% in data set [2] (SU-DHL-8, 10 μM); 1.10% in data set [2] (SU-DHL-8, 30 μM); 0.97% in data set [2] (SU-DHL-8, 50 μM).
As for `Cl.O=C(NCCCCCCCCCCCCN1CCNCC1)c1ccc(-c2ccccc2)o1` [Compound 90, 5-Phenyl-N-(12-(piperazin-1-yl)dodecyl) furan-2-carboxamide hydrochloride], the “Proliferation inhibition rate (%)” value in data set [1] (concentration 10 μM), in data set [1] (concentration 30 μM) and in data set [1] (concentration 50 μM) was 100.00% throughout. Also, the “Relative cell viability (%)” value in data set [2] (SU-DHL-8, 1 μM) is on record as 7.19%; in data set [2] (SU-DHL-8, 10 μM) it was 5.94%; in data set [2] (SU-DHL-8, 30 μM) it was 2.48%; in data set [2] (SU-DHL-8, 50 μM), 1.94%.
For the compound `CN1CCN(CCCCCCCCCCCCNC(=O)c2cccnc2F)CC1` [Compound 121, 2-fluoro-N-(12-(4-methylpiperazin-1-yl)dodecyl) nicotinamide], the “Proliferation inhibition rate (%)” value is reported as 0.00% in data set [1] (concentration 10 nM); 0.00% in data set [1] (concentration 100 nM); 0.00% in data set [1] (concentration 1 μM); 30.00% in data set [1] (concentration 10 μM); 100.00% in data set [1] (concentration 30 μM); 100.00% in data set [1] (concentration 50 μM). Besides, the “Relative cell viability (%)” value is given as 34.89% in data set [2] (SU-DHL-8, 1 μM); 28.99% in data set [2] (SU-DHL-8, 10 μM); 29.04% in data set [2] (SU-DHL-8, 30 μM); 31.11% in data set [2] (SU-DHL-8, 50 μM).
In the case of `Nc1ncccc1C(=O)NCCCCCCCCCCCCN1CC(F)(F)C1` [Compound 122, 2-Amino-N-(12-(3,3-difluoroazetidin-1-yl)dodecyl) nicotinamide], the “Proliferation inhibition rate (%)” value worked out at 0.00% in data set [1] (concentration 10 nM); 0.00% in data set [1] (concentration 100 nM); 80.00% in data set [1] (concentration 1 μM); 100.00% in data set [1] (concentration 10 μM); 100.00% in data set [1] (concentration 30 μM); 100.00% in data set [1] (concentration 50 μM). Also, the “Relative cell viability (%)” value in data set [2] (SU-DHL-8, 1 μM) is on record as 31.84%; in data set [2] (SU-DHL-8, 10 μM), 31.91%; in data set [2] (SU-DHL-8, 30 μM), 32.93%; in data set [2] (SU-DHL-8, 50 μM) it was 35.70%.
